Data reported in US20040167092A1, “Medicaments” (priority 2001, published 2004).

Key:
Format in all cases: in vivo
morphine-induced emesis = experiment: Morphine-induced emesis in the conscious ferret; settings: morphine 0.5 mg kg-1 s.c., 1 mg kg-1 s.c. 15 minutes before morphine, n=2
cisplatin-induced emesis = experiment: Cisplatin-induced emesis in the conscious ferret; settings: cisplatin 200 mg m-2 i.p., 1 mg kg-1 s.c. after first emetic episode, n=2
Method: For all the experiments. adult male ferrets, body weight range 1-1.5 kg, were used. Emesis was induced by X-irradiation, morphine and cisplatin. The ferrets were weighted and measured for the calculation of body surface area on the day before the experiment. On the day of the experiment each ferret received an intraperitoneal dose of cisplatin (200 mg m^−2).

radiation-induced emesis = experiment: Radiation-induced (X-irradiation) emesis in the conscious ferret; settings: for anti-emetic effect with DPCPX, animals affected (in words): two animals; for effect on radiation-induced emesis (in words): s.c. immediately after X-irradiation, conscious ferret
Text: The effects of a number of A1 agonists (including N-(3-fluoro4-hydroxy-phenyl)-5′-O-methyl-adenosine and N-(4-hydroxy-phenyl)-5′-O-methyl-adenosine) and an antagonist, 1,3-dipropyl-8-cyclopentylxanthine (DPCPX), were investigated for anti-emetic action against radiaton-induced emesis in the conscious ferret. In addition DPCPX was used in an attempt to block the anti- emetic effects of the partial agonist, N-(3-fluoro-4hydroxy-phenyl)-5′-O-methyl-adenosine, the structure of which is indicated below. [drawing 4]
For all the experiments. adult male ferrets, body weight range 1-1.5 kg, were used. Emesis was induced by X-irradiation, morphine and cisplatin.
The ferrets were weighed on the day before the experiment. On the day of the experiment each ferret received 2Gy (200 Rad) whole body X-irradiation, administered over a 5 minute period. The A1 receptor agonists, partial agonists or antagonist were administered via the subcutaneous route immediatelv after X-irradiation (i.e. approximately 25 minutes before the onset of emesis). When investigating the effects of the A1 receptor antagonist, DPCPX, on the partial agonist N-(3-fluoro4-hydroxy-phenyl)-5′-O-methyl-adenosine, either both compounds were administered simultaneously immediately after X-irradiation, or the DPCPX was given as a 15 minute pre-treatment.

| SMILES | % inhibition of retching (morphine-induced emesis; 1h) [%] | % inhibition of retching (morphine-induced emesis; 2h) [%] | % inhibition of retching (cisplatin-induced emesis; 1h) [%] | % inhibition of retching (cisplatin-induced emesis; 2h) [%] | % inhibition of retching (cisplatin-induced emesis; 7h) [%] | % inhibition of retching (radiation-induced emesis; 2Gy whole body X-irradiation, 1.0 mg kg-1 s.c. immediately after irradiation, observed 2 hours, n=2) [%] | anti-emetic effect with DPCPX, animals affected (in words) (radiation-induced emesis; DPCPX 3 mg kg-1 s.c., 15 minute pre-treatment) | anti-emetic effect with DPCPX, animals affected (in words) (radiation-induced emesis; DPCPX 1 mgkg-1 s.c. administered simultaneously) | reversal of the anti-emetic effect by the A1 receptor antagonist DPCPX (in words) (radiation-induced emesis; X-irradiation, addition of DPCPX) | effect on radiation-induced emesis (in words) (radiation-induced emesis) |
| --- | --- | --- | --- | --- | --- | --- | --- | --- | --- | --- |
| COC[C@H]1O[C@@H](n2cnc3c(Nc4ccc(O)c(F)c4)ncnc32)[C@H](O)[C@@H]1O [N-(3-fluoro-4-hydroxyphenyl)-5′-O-methyl-adenosine] | 100 | 100 | 100 | 67 | 43 | 100 | anti-emetic effect in both animals was reduced | anti-emetic effect in only one of the two animals tested was reduced | partially reversed | completely inhibited emesis |
| COC[C@H]1O[C@@H](n2cnc3c(Nc4ccc(O)cc4)ncnc32)[C@H](O)[C@@H]1O [N-(4-hydroxyphenyl)-5′-O-methyl-adenosine] | – | – | – | – | – | – | – | – | – | completely inhibited emesis |
